Laboratory results taken from PubChem BioAssay (NCI).
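A five-concentration, 48-hour dose response in 96-well plates underlies each endpoint, interpolated linearly between surrounding concentrations. Definition used: TGI = concentration required for complete inhibition of growth.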

Key:
Test in all cases: NCI anticancer screen, dose series, 48 h
[1] = test system: HCC-2998 colon
[2] = test system: K-562 leukemia
[3] = test system: SR leukemia
[4] = test system: UACC-62 melanoma
[5] = test system: HT29 colon
[6] = test system: MDA-MB-435
[7] = test system: M14 melanoma
[8] = test system: SF-295 CNS
[9] = test system: HS 578T breast
[10] = test system: UO-31 renal
[11] = test system: SNB-75 CNS
[12] = test system: MDA-MB-231 breast
[13] = test system: LOX IMVI melanoma
[14] = test system: CCRF-CEM leukemia
[15] = test system: TK-10 renal
[16] = test system: SF-539 CNS
[17] = test system: MOLT-4 leukemia
[18] = test system: OVCAR-5 ovarian
[19] = test system: CAKI-1 renal
[20] = test system: NCI-H226 lung
[21] = test system: SW-620 colon
[22] = test system: HL-60(TB) leukemia
[23] = test system: HCT-116 colon
[24] = test system: SK-MEL-5 melanoma
[25] = test system: RPMI-8226 leukemia
[26] = test system: NCI-H460 lung
[27] = test system: UACC-257 melanoma
[28] = test system: NCI-H522 lung
[29] = test system: 786-0 renal
[30] = test system: OVCAR-3 ovarian
[31] = test system: HOP-62 NSCLC
[32] = test system: SF-268 CNS
[33] = test system: OVCAR-4 ovarian
[34] = test system: COLO 205 colon
[35] = test system: SK-OV-3 ovarian
[36] = test system: KM12 colon
[37] = test system: DU-145 prostate
[38] = test system: IGROV1 ovarian
[39] = test system: SK-MEL-2 melanoma
[40] = test system: MALME-3M melanoma
[41] = test system: MDA-N
[42] = test system: NCI-H23 lung
[43] = test system: HCT-15 colon
[44] = test system: A549 NSCLC
[45] = test system: EKVX NSCLC
[46] = test system: RXF 393 renal
[47] = test system: SN12C renal
[48] = test system: SK-MEL-28 melanoma
[49] = test system: PC-3 prostate
[50] = test system: SNB-19 CNS
[51] = test system: T-47D breast
[52] = test system: ACHN renal
[53] = test system: NCI/ADR-RES ovarian
[54] = test system: A498 renal
[55] = test system: MCF7 breast
[56] = test system: OVCAR-8 ovarian
[57] = test system: U251 CNS
[58] = test system: HOP-92 NSCLC

COc1cc2nn(-c3ccccc3)nc2c2nonc12
TGI [1]: > 100 µM | TGI [2]: > 100 µM | TGI [3]: > 100 µM | TGI [4]: > 100 µM | TGI [5]: > 100 µM | TGI [6]: > 100 µM | TGI [7]: > 100 µM | TGI [8]: > 100 µM | TGI [9]: > 100 µM | TGI [10]: > 100 µM | TGI [11]: > 100 µM | TGI [12]: > 100 µM | TGI [13]: > 100 µM | TGI [14]: > 100 µM | TGI [15]: > 100 µM | TGI [16]: > 100 µM | TGI [17]: > 100 µM | TGI [18]: > 100 µM | TGI [19]: > 100 µM | TGI [20]: > 100 µM | TGI [21]: > 100 µM | TGI [22]: > 100 µM | TGI [23]: > 100 µM | TGI [24]: > 100 µM | TGI [25]: > 100 µM | TGI [26]: > 100 µM | TGI [27]: > 100 µM | TGI [28]: > 100 µM | TGI [29]: > 100 µM | TGI [30]: > 100 µM | TGI [31]: > 100 µM | TGI [32]: > 100 µM | TGI [33]: > 100 µM | TGI [34]: > 100 µM | TGI [35]: > 100 µM | TGI [36]: > 100 µM | TGI [37]: > 100 µM | TGI [38]: > 100 µM | TGI [39]: > 100 µM | TGI [40]: > 100 µM | TGI [41]: > 100 µM | TGI [42]: > 100 µM | TGI [43]: > 100 µM | TGI [44]: > 100 µM | TGI [45]: > 100 µM | TGI [46]: > 100 µM | TGI [47]: > 100 µM | TGI [48]: > 100 µM | TGI [49]: > 100 µM | TGI [50]: > 100 µM | TGI [51]: > 100 µM | TGI [52]: > 100 µM | TGI [53]: > 100 µM | TGI [54]: > 100 µM

COC1=CC(=O)c2c(cc(COP(N)(=O)N(CCBr)CCBr)n2C)C1=O (stereo unspecified)
TGI [2]: > 100 µM | TGI [3]: 1.6 µM | TGI [4]: 1.47 µM | TGI [5]: 1.05 µM | TGI [6]: 2.42 µM | TGI [7]: 0.633 µM | TGI [8]: 0.225 µM | TGI [10]: 3.66 µM | TGI [11]: 1.19 µM | TGI [12]: 7.1 µM | TGI [13]: 0.121 µM | TGI [14]: 0.771 µM | TGI [15]: 3.43 µM | TGI [16]: 0.133 µM | TGI [17]: > 100 µM | TGI [18]: 1.06 µM | TGI [55]: 16.1 µM | TGI [20]: 1.17 µM | TGI [21]: 1.48 µM | TGI [22]: 3.64 µM | TGI [23]: 0.131 µM | TGI [24]: 2.2 µM | TGI [25]: 1.16 µM | TGI [26]: 5.38 µM | TGI [27]: 4.44 µM | TGI [28]: 0.188 µM | TGI [30]: 0.651 µM | TGI [32]: 1.8 µM | TGI [33]: 10.5 µM | TGI [34]: 0.144 µM | TGI [35]: 1.15 µM | TGI [36]: 4.72 µM | TGI [37]: 1.41 µM | TGI [38]: 2.8 µM | TGI [56]: 1.2 µM | TGI [39]: 3.57 µM | TGI [40]: 1.86 µM | TGI [41]: 2.24 µM | TGI [57]: 0.859 µM | TGI [42]: 2.67 µM | TGI [43]: 2.5 µM | TGI [44]: 1.71 µM | TGI [45]: 0.207 µM | TGI [46]: 1.49 µM | TGI [47]: 1.08 µM | TGI [48]: 3.1 µM | TGI [49]: 4.62 µM | TGI [50]: 8.28 µM | TGI [51]: 2.98 µM | TGI [52]: 0.0219 µM | TGI [53]: 7.86 µM | TGI [54]: 2.88 µM

CC/C=C/C(CC)C/C(C)=C\[C@]1(CC)C[C@H](CC)[C@H](CC(=O)O)OO1 (stereo partly specified)
TGI [2]: 1.48 µM | TGI [3]: 0.287 µM | TGI [4]: 3.07 µM | TGI [5]: 1.83 µM | TGI [6]: 2.8 µM | TGI [7]: 3.6 µM | TGI [8]: 1.19 µM | TGI [9]: 5.31 µM | TGI [10]: 0.0368 µM | TGI [12]: 3.31 µM | TGI [13]: 0.129 µM | TGI [14]: 0.41 µM | TGI [16]: 2.93 µM | TGI [17]: 0.494 µM | TGI [18]: 2.64 µM | TGI [19]: 0.967 µM | TGI [55]: 3.58 µM | TGI [20]: 4.58 µM | TGI [21]: 1.42 µM | TGI [22]: 2.27 µM | TGI [23]: 1.43 µM | TGI [24]: 2.54 µM | TGI [25]: 0.395 µM | TGI [26]: 0.36 µM | TGI [27]: 11.1 µM | TGI [28]: 0.331 µM | TGI [29]: 2.61 µM | TGI [30]: 2.48 µM | TGI [31]: 2.2 µM | TGI [32]: 2.9 µM | TGI [34]: 2.72 µM | TGI [35]: 3.3 µM | TGI [36]: 0.235 µM | TGI [37]: 1.64 µM | TGI [38]: 0.208 µM | TGI [56]: 3.23 µM | TGI [39]: 3.22 µM | TGI [41]: 2.71 µM | TGI [57]: 1.79 µM | TGI [42]: 3.05 µM | TGI [43]: 1.62 µM | TGI [44]: 0.281 µM | TGI [47]: 3.05 µM | TGI [49]: 1.24 µM | TGI [50]: 3.34 µM | TGI [51]: 2.99 µM | TGI [52]: 0.641 µM | TGI [53]: 1.84 µM | TGI [54]: 3.07 µM

O=c1c2ccccc2n2c(-c3ccc(O)cc3)nnc2n1-c1ccccc1
TGI [1]: > 100 µM | TGI [2]: 26.2 µM | TGI [3]: 46.2 µM | TGI [4]: 38.9 µM | TGI [5]: 43.9 µM | TGI [6]: 36.2 µM | TGI [7]: 39.8 µM | TGI [8]: 31.5 µM | TGI [10]: 6.83 µM | TGI [11]: 38.5 µM | TGI [12]: 40.3 µM | TGI [13]: 55.4 µM | TGI [14]: 51.3 µM | TGI [15]: 43.5 µM | TGI [16]: 33.9 µM | TGI [17]: > 100 µM | TGI [18]: > 100 µM | TGI [19]: 65 µM | TGI [20]: 53.6 µM | TGI [21]: 29.8 µM | TGI [22]: > 100 µM | TGI [23]: 41.2 µM | TGI [24]: 37.2 µM | TGI [26]: 40 µM | TGI [27]: 41.8 µM | TGI [28]: 38.8 µM | TGI [29]: 33.7 µM | TGI [30]: 39.5 µM | TGI [31]: 41 µM | TGI [32]: 38.9 µM | TGI [33]: 45.3 µM | TGI [34]: > 100 µM | TGI [35]: 38.3 µM | TGI [36]: > 100 µM | TGI [37]: 40.1 µM | TGI [38]: 34.9 µM | TGI [56]: 90.6 µM | TGI [39]: 40.9 µM | TGI [40]: 42.6 µM | TGI [41]: 34.1 µM | TGI [57]: 32.4 µM | TGI [42]: 37.7 µM | TGI [43]: 50.7 µM | TGI [44]: 38.6 µM | TGI [45]: 34.7 µM | TGI [46]: 39.4 µM | TGI [47]: 32.2 µM | TGI [48]: 43.3 µM | TGI [49]: 33.6 µM | TGI [50]: 39.7 µM | TGI [51]: 34.8 µM | TGI [52]: 30 µM | TGI [58]: 45.6 µM | TGI [53]: 48.5 µM | TGI [54]: 31.6 µM

CCOC(CNc1nn2c(C)nnc2s1)OCC
TGI [1]: > 100 µM | TGI [2]: > 100 µM | TGI [3]: > 100 µM | TGI [4]: > 100 µM | TGI [5]: > 100 µM | TGI [6]: > 100 µM | TGI [7]: > 100 µM | TGI [8]: > 100 µM | TGI [9]: > 100 µM | TGI [11]: > 100 µM | TGI [12]: > 100 µM | TGI [13]: > 100 µM | TGI [14]: > 100 µM | TGI [15]: > 100 µM | TGI [16]: > 100 µM | TGI [17]: > 100 µM | TGI [18]: > 100 µM | TGI [19]: > 100 µM | TGI [55]: > 100 µM | TGI [20]: > 100 µM | TGI [21]: > 100 µM | TGI [22]: > 100 µM | TGI [23]: > 100 µM | TGI [24]: > 100 µM | TGI [25]: > 100 µM | TGI [26]: > 100 µM | TGI [27]: > 100 µM | TGI [28]: > 100 µM | TGI [29]: > 100 µM | TGI [30]: > 100 µM | TGI [31]: > 100 µM | TGI [32]: > 100 µM | TGI [33]: > 100 µM | TGI [34]: > 100 µM | TGI [35]: > 100 µM | TGI [36]: > 100 µM | TGI [37]: > 100 µM | TGI [38]: > 100 µM | TGI [56]: > 100 µM | TGI [39]: > 100 µM | TGI [40]: > 100 µM | TGI [41]: > 100 µM | TGI [57]: > 100 µM | TGI [42]: > 100 µM | TGI [43]: > 100 µM | TGI [44]: > 100 µM | TGI [45]: > 100 µM | TGI [46]: > 100 µM | TGI [47]: > 100 µM | TGI [48]: > 100 µM | TGI [49]: > 100 µM | TGI [50]: > 100 µM | TGI [52]: > 100 µM | TGI [58]: > 100 µM | TGI [53]: > 100 µM | TGI [54]: > 100 µM
